Experiment [1] deals with T1, Phospholipase D1 (Homo sapiens, UniProt Q13393). Kind of experiment: PLD1 purified enzyme concentration response. [Related pubchem assays (depositor defined):AID588854]. Type of experiment: functional.
Experiment [2] has as its target T2, Phospholipase D2 (Homo sapiens, UniProt O14939). Put plainly: PLD2 purified enzyme concentration response. [Related pubchem assays (depositor defined):AID588854]. Format: functional.
A short description of experiment [3]: mammalian cell cytotoxicity, dose response, cytotoxicity control, plate reader, cherry-pick samples (AID 504397). Format: functional, cell-based.
A short description of experiment [4]: Luminescence Cell-Based Dose Confirmation HTS to Identify Inhibitors of Platelet Dense Granule Release. [Related pubchem assays: 1663 (Primary HTS), 1678 (Summary of Project)]. Format: functional.
Experiment [5] has as its target CAAX prenyl protease 2 (Saccharomyces cerevisiae S288c, UniProt Q03530). Type of experiment: biochemical.
Experiment [6] concerns the target Luciferin 4-monooxygenase (Photinus pyralis, UniProt P08659). Put plainly: firefly luciferase enzyme inhibitors, dose response, biochemical, luminescence (AID 1891).
Experiment [7] has as its target CAAX prenyl protease 2 (Homo sapiens, UniProt Q9Y256). Kind of experiment: human Rce1 protease inhibitors, dose response, biochemical, plate reader, dry powder samples (AID 588848).
For the next experiment, the target named is Hexokinase HKDC1 (Homo sapiens, UniProt Q2TB90). Put plainly: SAR analysis of small molecule inhibitors of hexokinase domain containing I (HKDC1). [Related pubchem assays (depositor defined):AID493160, AID493190]. Type of experiment: functional.
Hexokinase HKDC1, sequence (Q2TB90 whole entry, the tested form may be a part): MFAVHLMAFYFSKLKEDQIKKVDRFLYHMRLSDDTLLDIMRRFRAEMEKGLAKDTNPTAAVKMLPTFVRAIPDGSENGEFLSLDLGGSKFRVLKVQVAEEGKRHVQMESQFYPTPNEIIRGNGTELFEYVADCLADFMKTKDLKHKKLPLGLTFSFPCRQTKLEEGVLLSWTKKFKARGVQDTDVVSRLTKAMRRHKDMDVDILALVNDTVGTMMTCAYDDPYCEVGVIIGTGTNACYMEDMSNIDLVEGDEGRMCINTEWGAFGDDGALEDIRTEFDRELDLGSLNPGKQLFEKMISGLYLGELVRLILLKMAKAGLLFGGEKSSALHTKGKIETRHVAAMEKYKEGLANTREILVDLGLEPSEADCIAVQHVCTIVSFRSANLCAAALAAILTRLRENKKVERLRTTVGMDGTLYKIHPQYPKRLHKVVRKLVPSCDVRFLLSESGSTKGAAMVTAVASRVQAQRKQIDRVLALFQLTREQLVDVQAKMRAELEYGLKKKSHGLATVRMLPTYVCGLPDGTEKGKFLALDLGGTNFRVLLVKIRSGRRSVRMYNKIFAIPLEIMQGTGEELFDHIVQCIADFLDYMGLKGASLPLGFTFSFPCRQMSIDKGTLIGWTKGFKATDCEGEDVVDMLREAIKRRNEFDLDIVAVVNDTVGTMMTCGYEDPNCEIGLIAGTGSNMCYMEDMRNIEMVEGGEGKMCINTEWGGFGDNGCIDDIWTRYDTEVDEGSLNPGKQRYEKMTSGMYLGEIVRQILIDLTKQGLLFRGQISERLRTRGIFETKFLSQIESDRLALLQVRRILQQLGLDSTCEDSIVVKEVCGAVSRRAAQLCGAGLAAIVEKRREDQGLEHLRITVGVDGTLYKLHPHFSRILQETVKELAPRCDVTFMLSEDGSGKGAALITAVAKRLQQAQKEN
The target in a further experiment is Hexokinase-1 (Homo sapiens, UniProt P19367). Kind of experiment: SAR analysis of small molecule inhibitors of hexokinase domain containing I (HKDC1) in the hexokinase 1 selectivity assay. [Related pubchem assays (depositor defined):AID493160, AID493190]. Format: functional.
Hexokinase-1, sequence (P19367 whole entry, the tested form may be a part): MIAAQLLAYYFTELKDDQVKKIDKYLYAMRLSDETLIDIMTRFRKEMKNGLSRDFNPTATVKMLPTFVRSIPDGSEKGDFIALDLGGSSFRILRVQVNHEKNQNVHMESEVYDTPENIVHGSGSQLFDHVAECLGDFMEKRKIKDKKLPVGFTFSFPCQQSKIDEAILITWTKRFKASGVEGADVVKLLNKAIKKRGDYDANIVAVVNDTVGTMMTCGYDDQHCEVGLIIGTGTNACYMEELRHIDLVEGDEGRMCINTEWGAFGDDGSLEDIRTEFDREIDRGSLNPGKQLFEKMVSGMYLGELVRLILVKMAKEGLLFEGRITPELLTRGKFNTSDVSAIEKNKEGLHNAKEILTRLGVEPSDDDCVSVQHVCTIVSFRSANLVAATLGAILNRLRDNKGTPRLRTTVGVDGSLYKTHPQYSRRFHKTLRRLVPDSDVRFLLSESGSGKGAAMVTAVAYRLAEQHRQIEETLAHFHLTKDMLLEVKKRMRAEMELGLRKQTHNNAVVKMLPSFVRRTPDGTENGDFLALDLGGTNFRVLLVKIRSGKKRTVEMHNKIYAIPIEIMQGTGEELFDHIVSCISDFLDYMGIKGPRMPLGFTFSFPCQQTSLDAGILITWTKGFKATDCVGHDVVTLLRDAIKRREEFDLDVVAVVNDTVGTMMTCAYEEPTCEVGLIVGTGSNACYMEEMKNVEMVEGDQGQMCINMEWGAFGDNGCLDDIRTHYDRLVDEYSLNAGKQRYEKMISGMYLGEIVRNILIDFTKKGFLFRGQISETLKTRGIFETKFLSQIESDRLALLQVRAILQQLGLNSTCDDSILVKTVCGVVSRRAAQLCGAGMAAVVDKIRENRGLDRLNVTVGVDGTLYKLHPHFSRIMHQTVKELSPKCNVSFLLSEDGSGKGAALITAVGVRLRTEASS
Experiment [8] concerns the target T1, Phospholipase D1. Kind of experiment: PLD1 inhibitor potency in cells, dose response (AID 602151).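 Further: cellular PLD1 assay in Calu-1 cells stimulated with PMA.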 Format: functional.
The target of experiment [9] is T2, Phospholipase D2. Put plainly: PLD2 inhibitor potency in cells, dose response (AID 602147).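 Further: cellular assay in HEK293 cells overexpressing GFP-tagged PLD2.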 Format: functional.

Calls of active or inactive are those of the source.

T1 sequence (Q13393 whole entry): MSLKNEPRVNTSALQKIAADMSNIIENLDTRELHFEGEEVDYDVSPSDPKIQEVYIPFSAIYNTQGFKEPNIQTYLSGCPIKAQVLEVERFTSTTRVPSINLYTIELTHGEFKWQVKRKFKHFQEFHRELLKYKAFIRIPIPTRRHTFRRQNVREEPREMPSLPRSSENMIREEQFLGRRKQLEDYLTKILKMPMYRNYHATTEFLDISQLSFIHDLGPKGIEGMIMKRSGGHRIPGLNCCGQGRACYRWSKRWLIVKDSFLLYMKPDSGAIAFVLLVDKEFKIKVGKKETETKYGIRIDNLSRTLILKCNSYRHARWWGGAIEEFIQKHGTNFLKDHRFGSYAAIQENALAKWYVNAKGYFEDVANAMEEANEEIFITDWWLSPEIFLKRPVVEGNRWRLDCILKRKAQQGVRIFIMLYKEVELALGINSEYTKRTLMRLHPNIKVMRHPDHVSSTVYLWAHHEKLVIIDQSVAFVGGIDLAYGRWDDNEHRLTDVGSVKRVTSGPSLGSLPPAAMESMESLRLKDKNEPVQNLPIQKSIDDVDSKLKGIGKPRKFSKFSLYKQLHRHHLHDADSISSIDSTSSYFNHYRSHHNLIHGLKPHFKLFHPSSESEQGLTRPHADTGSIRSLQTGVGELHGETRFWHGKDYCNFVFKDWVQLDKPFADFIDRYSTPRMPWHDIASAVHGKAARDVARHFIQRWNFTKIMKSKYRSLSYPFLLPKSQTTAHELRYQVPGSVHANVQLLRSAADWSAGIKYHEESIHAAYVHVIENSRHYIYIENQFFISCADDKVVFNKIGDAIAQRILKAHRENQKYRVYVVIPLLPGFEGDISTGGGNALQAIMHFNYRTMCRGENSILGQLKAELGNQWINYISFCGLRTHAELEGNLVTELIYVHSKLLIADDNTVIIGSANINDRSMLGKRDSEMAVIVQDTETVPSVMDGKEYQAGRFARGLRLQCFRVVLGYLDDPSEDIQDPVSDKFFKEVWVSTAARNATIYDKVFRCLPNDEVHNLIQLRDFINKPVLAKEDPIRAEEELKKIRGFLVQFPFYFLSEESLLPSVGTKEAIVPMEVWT
T2 sequence (O14939 whole entry): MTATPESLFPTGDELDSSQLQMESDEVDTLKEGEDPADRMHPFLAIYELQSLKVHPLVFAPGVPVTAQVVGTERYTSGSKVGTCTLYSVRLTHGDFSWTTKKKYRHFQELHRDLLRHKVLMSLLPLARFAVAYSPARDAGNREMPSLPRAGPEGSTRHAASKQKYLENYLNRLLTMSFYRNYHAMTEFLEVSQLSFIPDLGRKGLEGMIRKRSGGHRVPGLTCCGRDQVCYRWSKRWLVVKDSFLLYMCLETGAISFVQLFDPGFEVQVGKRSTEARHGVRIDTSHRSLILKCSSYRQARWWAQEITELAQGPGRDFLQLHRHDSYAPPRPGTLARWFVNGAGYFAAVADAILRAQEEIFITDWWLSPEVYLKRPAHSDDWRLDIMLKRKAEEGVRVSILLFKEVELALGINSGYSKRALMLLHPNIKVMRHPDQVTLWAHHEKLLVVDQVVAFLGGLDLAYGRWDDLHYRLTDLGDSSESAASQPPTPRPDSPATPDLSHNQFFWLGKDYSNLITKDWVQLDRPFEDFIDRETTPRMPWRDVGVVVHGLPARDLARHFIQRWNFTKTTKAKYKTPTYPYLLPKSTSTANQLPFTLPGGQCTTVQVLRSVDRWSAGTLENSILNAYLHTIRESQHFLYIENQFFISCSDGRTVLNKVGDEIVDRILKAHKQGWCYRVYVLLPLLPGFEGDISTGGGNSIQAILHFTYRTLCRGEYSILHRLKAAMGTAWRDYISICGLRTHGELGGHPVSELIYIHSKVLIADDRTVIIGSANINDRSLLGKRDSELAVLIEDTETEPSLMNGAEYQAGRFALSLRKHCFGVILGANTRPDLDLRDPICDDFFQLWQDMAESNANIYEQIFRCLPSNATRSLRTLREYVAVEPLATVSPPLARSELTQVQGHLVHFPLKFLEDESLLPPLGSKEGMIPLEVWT
CAAX prenyl protease 2 (Homo sapiens, UniProt Q9Y256), sequence (Q9Y256 whole entry, the tested form may be a part): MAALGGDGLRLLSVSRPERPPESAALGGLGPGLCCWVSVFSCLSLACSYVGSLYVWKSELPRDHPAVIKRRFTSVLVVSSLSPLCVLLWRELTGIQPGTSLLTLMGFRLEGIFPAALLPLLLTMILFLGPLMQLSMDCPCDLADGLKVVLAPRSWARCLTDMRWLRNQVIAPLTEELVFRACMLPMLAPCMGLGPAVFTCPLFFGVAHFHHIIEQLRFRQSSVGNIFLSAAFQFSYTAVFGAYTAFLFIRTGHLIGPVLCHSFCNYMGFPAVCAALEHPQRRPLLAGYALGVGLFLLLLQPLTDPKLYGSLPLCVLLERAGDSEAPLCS
Luciferin 4-monooxygenase, sequence (P08659 whole entry): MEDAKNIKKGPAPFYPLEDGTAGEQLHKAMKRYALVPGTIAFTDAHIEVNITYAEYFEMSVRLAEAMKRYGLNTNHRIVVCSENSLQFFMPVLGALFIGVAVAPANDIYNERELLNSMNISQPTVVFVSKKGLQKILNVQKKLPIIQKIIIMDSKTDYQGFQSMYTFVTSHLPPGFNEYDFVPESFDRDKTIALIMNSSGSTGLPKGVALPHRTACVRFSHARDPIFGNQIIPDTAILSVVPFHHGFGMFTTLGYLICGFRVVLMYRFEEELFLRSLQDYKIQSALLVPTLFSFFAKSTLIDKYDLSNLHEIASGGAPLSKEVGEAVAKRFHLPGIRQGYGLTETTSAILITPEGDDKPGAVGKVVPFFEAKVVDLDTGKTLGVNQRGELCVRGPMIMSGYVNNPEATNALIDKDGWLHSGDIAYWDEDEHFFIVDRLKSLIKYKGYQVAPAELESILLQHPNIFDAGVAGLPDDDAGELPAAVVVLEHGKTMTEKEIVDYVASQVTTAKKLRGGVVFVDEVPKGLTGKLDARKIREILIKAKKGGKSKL
CAAX prenyl protease 2 (Saccharomyces cerevisiae S288c, UniProt Q03530), sequence (Q03530 whole entry): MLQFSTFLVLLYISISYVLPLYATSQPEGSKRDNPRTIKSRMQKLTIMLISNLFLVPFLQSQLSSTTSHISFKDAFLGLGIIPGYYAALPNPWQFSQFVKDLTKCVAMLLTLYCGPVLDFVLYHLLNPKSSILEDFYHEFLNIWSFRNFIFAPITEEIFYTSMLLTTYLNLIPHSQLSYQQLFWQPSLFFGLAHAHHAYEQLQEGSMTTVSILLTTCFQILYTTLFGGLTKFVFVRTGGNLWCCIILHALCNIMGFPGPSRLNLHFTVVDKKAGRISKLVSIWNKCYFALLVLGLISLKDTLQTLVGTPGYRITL

For `O=C(NCCN1CCC2(CC1)C(=O)NCN2c1cccc(F)c1)c1cnc2ccccc2c1`, the IC50 on Phospholipase D1 [1] is 2.8 µM (active); on Phospholipase D2 [2] it was 0.13 µM (active).

For the compound `O=C(COC(=O)/C=C/c1cn(-c2ccccc2)nc1-c1ccc2c(c1)OCCO2)NC1CCS(=O)(=O)C1` (stereo unspecified), the values for the concentration at half-maximal activity (AC50) (in [3]; at CAAX prenyl protease 2 [5]; at CAAX prenyl protease 2 [7]) were 89.2 µM (active), 0.542 µM (active) and 17.4 µM (active), respectively. Besides, the EC50 in [4] and in experiment [6] was > 112 µM (not active) each time.

For the compound `COc1ccc(/C=C/c2nc3ccccc3c(=O)n2Cc2ccccc2)cc1`, the IC50 on Hexokinase HKDC1 and on Hexokinase-1 was > 80 µM (inactive) in each case.

In the case of `CN1CN(c2ccccc2)C2(CCN(CCNC(=O)c3ccc4ccccc4c3)CC2)C1=O`, the IC50 at Phospholipase D1 [8] is 2.8 µM (active); at Phospholipase D2 [9] it was 20 µM (active).

Usually IC50 stands for the midpoint of a concentration-inhibition curve. Usually AC50 stands for the concentration at which the activity in the assay is half-maximal. Usually EC50 stands for the concentration at which the effect is half-maximal. A high value points to lower potency in that assay.
